Like-named read-outs stand apart in the source and are kept apart here.

The nature of data set [1]: specific surface area (multi point BET, nitrogen). It is filed as physicochemical. The conditions noted are these: air-jet-ground, anhydrous. An excerpt: • Measuring method: In order to determine the particle size the powder is fed into a laser diffraction spectrometer using a dispersing unit. The median value X50 refers to the particle size below which 50% of the quantity of particles fall. The Q(5.8) value describes the percentage of particles which are less than 5.8 μm in size. • Measuring device: Laser diffraction spectrometer (HELOS), Messrs. • Sympatec • Software: WINDOX Version 3.3/REL 1 • Dispersing unit: RODOS/dispersing pressure: 3 bar • Focal length: 100 mm [measuring range: 0.9 . . . . 175 μm] • Evaluation method: HRLD (V 3.3 Rel. 1) b) Determining the Specific Surface Area: • Measuring method: The specific surface is determined by exposing the powder sample to a nitrogen atmosphere at different pressures.
Cooling the sample causes the nitrogen molecules to be condensed on the surface of the particles. The quantity of condensed nitrogen is determined by means of the drop in pressure in the system and the specific surface area of the sample is calculated by means of the surface nitrogen requirement and the weight of the sample. • Measuring device: Tri Star Multi Point BET, Messrs. Micromeritics • Heating station: VacPrep 061, Messrs. Micromeritics
Heating: approx. 12 h/40° C.

The conditions of data set [2]: conventional formulations; cited from earlier work.
A short description of data set [3]: physical stability of the amorphous micronised active substance in powder mixtures with excipients. It is filed as physicochemical. An excerpt:
It is known that the amorphous state of solids is thermodynamically unstable. In particular, this contributes to the fact that microparticles which have amorphous parts or are purely amorphous are metastable in their physicochemical properties. Typically, amorphous or partially amorphous pharmaceutical active substances and excipients, such as sugars, for example, recrystallise spontaneously during storage under normal conditions. The process may be accelerated by an increase in the relative humidity and possibly the temperature. In association with this recrystallisation, the particles change their surface characteristics, their particle morphology and their particle size.

Data set [4] can be described thus: systemic bioavailability after pulmonary or nasal inhalation. The class given is in vivo. The conditions noted are these: powder mixture with excipients, inhaled.
The next data set can be described thus: hygroscopicity. It is filed as physicochemical.

Consider `NCCCC[C@H](NC(=O)[C@@H](Cc1cc(Br)c(O)c(Br)c1)NC(=O)N1CCC(N2Cc3ccccc3NC2=O)CC1)C(=O)N1CCN(c2ccncc2)CC1` [A, 1-[N^2-[3,5-dibromo-N-[[4-(3,4-dihydro-2(1H)-oxoquinazolin-3-yl)-1-piperidinyl]carbonyl]-D-tyrosyl]-L-lysyl]-4-(4-pyridinyl)-piperazine], for which, in data set [1], the specific surface area was 20.2 m^2/g. The oral bioavailability entry in data set [2] is recorded as “very limited oral bioavailability”. Further, the “amorphous form on storage (X-ray powder diffractometry)” value in data set [3] (amorphous micronised particles, shelf life of the medicament) was “maintained throughout the shelf life”. Moreover, the physical stability result in data set [3] (powder mixtures with excipients) is recorded as “physically stable”. Further, the “bioavailability by pulmonary or nasal inhalation” value in data set [4] is listed as “sufficiently bioavailable”. The hygroscopicity entry in the data set “hygroscopicity” is recorded as “hygroscopic”; in the data set “hygroscopicity” (listed as active substance) it was “strongly hygroscopic”.
